Data as given in US10681909B2, “Herbicidal triazoles” (FMC Corporation, priority 2014, dated 2020).

Columns and labels:
corn [1] = experiment: Test A postemergence; format: in vivo, Zea mays; settings: 0 to 100 scale (0 no effect, 100 complete control), approx. 10 d
Outline: (§1)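 Plant seeds in loam soil blended with sand, then apply test chemical preemergence as a directed soil spray; in parallel, spray potted seedlings (one- to two-leaf, 2 to 10 cm) postemergence. Both treatments use a non-phytotoxic solvent mixture with surfactant.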

velvetleaf = experiment: Test C postemergence; format: in vivo, Abutilon theophrasti
Outline: (§2)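 Pre: seeded into loam/sand, sprayed same time. Post: plants in peat moss–vermiculite mix with starter nutrients and dolomitic limestone, treated at 1- to 4-leaf stage (2 to 18 cm). Formulation: non-phytotoxic solvent blend plus surfactant.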

foxtail, giant [2] = experiment: Test C postemergence; format: in vivo, Setaria faberii
Outline: as §2

corn [3] = experiment: Test C postemergence; format: in vivo, Zea mays
Outline: as §2

kochia = experiment: Test C postemergence; format: in vivo, Kochia scoparia
Outline: as §2

ryegrass, Italian = experiment: Test C postemergence; format: in vivo, Lolium multiflorum
Outline: as §2

waterhemp = experiment: Test C postemergence; format: in vivo, Amaranthus rudis
Outline: as §2

barnyardgrass [4] = experiment: Test B flooded paddy test; format: in vivo, Echinochloa crus-galli; settings: 250 g ai/ha, applied to paddy water at 2-leaf stage, visual rating after 13 to 15 d, scale 0 (no effect) to 100 (complete control)
Outline: (§3)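 Pots were flooded to 3 cm above the soil at treatment, and compounds were applied directly into the paddy water. That depth was held throughout. After 13 to 15 d in a greenhouse, plants were rated visually against untreated controls.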

nutsedge, yellow = experiment: Test C postemergence; format: in vivo, Cyperus esculentus
Outline: as §2

barnyardgrass [5] = experiment: Test A postemergence; format: in vivo, Echinochloa crus-galli; settings: 0 to 100 scale (0 no effect, 100 complete control), approx. 10 d
Outline: as §1

oilseed rape = experiment: Test C postemergence; format: in vivo, Brassica napus
Outline: as §2

sedge, umbrella = experiment: Test B flooded paddy test; format: in vivo, Cyperus difformis; settings: 250 g ai/ha, applied to paddy water at 2-leaf stage, visual rating after 13 to 15 d, scale 0 (no effect) to 100 (complete control)
Outline: as §3

crabgrass, large = experiment: Test C postemergence; format: in vivo, Digitaria sanguinalis
Outline: as §2

barnyardgrass [6] = experiment: Test C postemergence; format: in vivo, Echinochloa crus-galli
Outline: as §2

barnyardgrass [7] = experiment: Test A preemergence; format: in vivo, Echinochloa crus-galli; settings: 0 to 100 scale (0 no effect, 100 complete control)
Outline: as §1

foxtail, giant [8] = experiment: Test A postemergence; format: in vivo, Setaria faberii; settings: 0 to 100 scale (0 no effect, 100 complete control), approx. 10 d
Outline: as §1

ducksalad = experiment: Test B flooded paddy test; format: in vivo, Heteranthera limosa; settings: 250 g ai/ha, applied to paddy water at 2-leaf stage, visual rating after 13 to 15 d, scale 0 (no effect) to 100 (complete control)
Outline: as §3

morningglory = experiment: Test C postemergence; format: in vivo, Ipomoea coccinea
Outline: as §2

pigweed = experiment: Test A postemergence; format: in vivo, Amaranthus retroflexus; settings: 0 to 100 scale (0 no effect, 100 complete control), approx. 10 d
Outline: as §1

ragweed = experiment: Test C postemergence; format: in vivo, Ambrosia elatior
Outline: as §2

wheat = experiment: Test A postemergence; format: in vivo, Triticum aestivum; settings: 0 to 100 scale (0 no effect, 100 complete control), approx. 10 d
Outline: as §1

Fc1ccc(-c2nc(OCC(F)(F)F)n(Cc3ccnc(C(F)(F)F)c3)n2)cc1 [Compound 30]
Plant response rating, Corn (corn [1]; 125 g ai/ha): 40 | Plant response rating, Corn (corn [1]; 500 g ai/ha): 50 | Plant response rating (scale of 0 to 100 where 0 is no effect and 100 is complete control) (velvetleaf; 31 g ai/ha): 55 | Plant response rating (scale of 0 to 100 where 0 is no effect and 100 is complete control) (velvetleaf; 62 g ai/ha): 60 | Plant response rating (scale of 0 to 100 where 0 is no effect and 100 is complete control) (velvetleaf; 125 g ai/ha): 80 | Plant response rating (scale of 0 to 100 where 0 is no effect and 100 is complete control) (velvetleaf; 250 g ai/ha): 90 | Plant response rating (scale of 0 to 100 where 0 is no effect and 100 is complete control) (foxtail, giant [2]; 31 g ai/ha): 5 | Plant response rating (scale of 0 to 100 where 0 is no effect and 100 is complete control) (foxtail, giant [2]; 62 g ai/ha): 10 | Plant response rating (scale of 0 to 100 where 0 is no effect and 100 is complete control) (foxtail, giant [2]; 125 g ai/ha): 25 | Plant response rating (scale of 0 to 100 where 0 is no effect and 100 is complete control) (foxtail, giant [2]; 250 g ai/ha): 25 | Plant response rating (scale of 0 to 100 where 0 is no effect and 100 is complete control) (corn [3]; 31 g ai/ha): 15 | Plant response rating (scale of 0 to 100 where 0 is no effect and 100 is complete control) (corn [3]; 62 g ai/ha): 10 | Plant response rating (scale of 0 to 100 where 0 is no effect and 100 is complete control) (corn [3]; 125 g ai/ha): 25 | Plant response rating (scale of 0 to 100 where 0 is no effect and 100 is complete control) (corn [3]; 250 g ai/ha): 20 | Plant response rating (scale of 0 to 100 where 0 is no effect and 100 is complete control) (kochia; 31 g ai/ha): 100 | Plant response rating (scale of 0 to 100 where 0 is no effect and 100 is complete control) (kochia; 62 g ai/ha): 100 | Plant response rating (scale of 0 to 100 where 0 is no effect and 100 is complete control) (kochia; 125 g ai/ha): 100 | Plant response rating (scale of 0 to 100 where 0 is no effect and 100 is complete control) (kochia; 250 g ai/ha): 100 | Plant response rating (scale of 0 to 100 where 0 is no effect and 100 is complete control) (ryegrass, Italian; 31 g ai/ha): 20 | Plant response rating (scale of 0 to 100 where 0 is no effect and 100 is complete control) (ryegrass, Italian; 62 g ai/ha): 25 | Plant response rating (scale of 0 to 100 where 0 is no effect and 100 is complete control) (ryegrass, Italian; 125 g ai/ha): 30 | Plant response rating (scale of 0 to 100 where 0 is no effect and 100 is complete control) (ryegrass, Italian; 250 g ai/ha): 50 | Plant response rating (scale of 0 to 100 where 0 is no effect and 100 is complete control) (waterhemp; 31 g ai/ha): 95 | Plant response rating (scale of 0 to 100 where 0 is no effect and 100 is complete control) (waterhemp; 62 g ai/ha): 98 | Plant response rating (scale of 0 to 100 where 0 is no effect and 100 is complete control) (waterhemp; 125 g ai/ha): 95 | Plant response rating (scale of 0 to 100 where 0 is no effect and 100 is complete control) (waterhemp; 250 g ai/ha): 98 | Plant response rating, Barnyardgrass, Flood (barnyardgrass [4]): 30 | Plant response rating (scale of 0 to 100 where 0 is no effect and 100 is complete control) (nutsedge, yellow; 31 g ai/ha): 5 | Plant response rating (scale of 0 to 100 where 0 is no effect and 100 is complete control) (nutsedge, yellow; 62 g ai/ha): 5 | Plant response rating (scale of 0 to 100 where 0 is no effect and 100 is complete control) (nutsedge, yellow; 125 g ai/ha): 10 | Plant response rating (scale of 0 to 100 where 0 is no effect and 100 is complete control) (nutsedge, yellow; 250 g ai/ha): 15 | Plant response rating, Barnyardgrass (barnyardgrass [5]; 125 g ai/ha): 80 | Plant response rating, Barnyardgrass (barnyardgrass [5]; 500 g ai/ha): 90 | Plant response rating (scale of 0 to 100 where 0 is no effect and 100 is complete control) (oilseed rape; Oilsee Rape, 250 g ai/ha): 95 | Plant response rating (scale of 0 to 100 where 0 is no effect and 100 is complete control) (oilseed rape; Oilseed Rape, 31 g ai/ha): 35 | Plant response rating (scale of 0 to 100 where 0 is no effect and 100 is complete control) (oilseed rape; Oilseed Rape, 62 g ai/ha): 80 | Plant response rating (scale of 0 to 100 where 0 is no effect and 100 is complete control) (oilseed rape; Oilseed Rape, 125 g ai/ha): 95 | Plant response rating, Sedge, Umbrella, Flood (sedge, umbrella): 90 | Plant response rating (scale of 0 to 100 where 0 is no effect and 100 is complete control) (crabgrass, large; 31 g ai/ha): 20 | Plant response rating (scale of 0 to 100 where 0 is no effect and 100 is complete control) (crabgrass, large; 62 g ai/ha): 15 | Plant response rating (scale of 0 to 100 where 0 is no effect and 100 is complete control) (crabgrass, large; 125 g ai/ha): 35 | Plant response rating (scale of 0 to 100 where 0 is no effect and 100 is complete control) (crabgrass, large; 250 g ai/ha): 60 | Plant response rating (scale of 0 to 100 where 0 is no effect and 100 is complete control) (barnyardgrass [6]; 31 g ai/ha): 25 | Plant response rating (scale of 0 to 100 where 0 is no effect and 100 is complete control) (barnyardgrass [6]; 62 g ai/ha): 20 | Plant response rating (scale of 0 to 100 where 0 is no effect and 100 is complete control) (barnyardgrass [6]; 125 g ai/ha): 40 | Plant response rating (scale of 0 to 100 where 0 is no effect and 100 is complete control) (barnyardgrass [6]; 250 g ai/ha): 85 | Plant response rating, Barnyardgrass (barnyardgrass [7]; 125 g ai/ha): 90 | Plant response rating, Barnyardgrass (barnyardgrass [7]; 500 g ai/ha, approx. 10 d): 100 | Plant response rating, Foxtail, Giant (foxtail, giant [8]; 125 g ai/ha): 80 | Plant response rating, Foxtail, Giant (foxtail, giant [8]; 500 g ai/ha): 90 | Plant response rating, Ducksalad, Flood (ducksalad): 80 | Plant response rating (scale of 0 to 100 where 0 is no effect and 100 is complete control) (morningglory; 31 g ai/ha): 80 | Plant response rating (scale of 0 to 100 where 0 is no effect and 100 is complete control) (morningglory; 62 g ai/ha): 70 | Plant response rating (scale of 0 to 100 where 0 is no effect and 100 is complete control) (morningglory; 125 g ai/ha): 80 | Plant response rating (scale of 0 to 100 where 0 is no effect and 100 is complete control) (morningglory; 250 g ai/ha): 100 | Plant response rating, Pigweed (pigweed; 125 g ai/ha): 100 | Plant response rating, Pigweed (pigweed; 500 g ai/ha): 100 | Plant response rating (scale of 0 to 100 where 0 is no effect and 100 is complete control) (ragweed; 31 g ai/ha): 65 | Plant response rating (scale of 0 to 100 where 0 is no effect and 100 is complete control) (ragweed; 62 g ai/ha): 55 | Plant response rating (scale of 0 to 100 where 0 is no effect and 100 is complete control) (ragweed; 125 g ai/ha): 65 | Plant response rating (scale of 0 to 100 where 0 is no effect and 100 is complete control) (ragweed; 250 g ai/ha): 85 | Plant response rating, Wheat (wheat; 125 g ai/ha): 10 | Plant response rating, Wheat (wheat; 500 g ai/ha): 30
